Source: ChEMBL document CHEMBL1201862, “PubChem BioAssay data set” (2004)
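Results reflect a 48-hour exposure of cells in 96-well plates to compound at five concentrations. Here, GI50 denotes the concentration required for 50% inhibition of growth.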 Active and inactive are the calls of the source. Rule as the data show it: active = GI50 up to about 1.1 µM and inactive = higher.

What was measured:
Assay in all cases: NCI anticancer screen, dose series, 48 h
DLD-1 = test system: DLD-1
DMS-273 = test system: DMS-273
KM-20L2 = test system: KM-20L2
LXFL 529 = test system: LXFL 529
NCI-H522 = test system: NCI-H522
RXF 631 = test system: RXF 631
SNB-78 = test system: SNB-78

Measured: GI50

O=c1c(C(c2ccc(Cl)cc2)c2c(O)c3ccccc3n(-c3ccccc3)c2=O)c(O)c2ccccc2n1-c1ccccc1
inactive: DLD-1 7.08 µM | DMS-273 36.9 µM | KM-20L2 37.6 µM | LXFL 529 26.5 µM | NCI-H522 22.6 µM | RXF 631 19.1 µM | SNB-78 48.8 µM
